# According to BindingDB's records for doi:10.3109/14756360903508430 (University of Karachi, 2010):
# pIC50: −log10 of the molar value.
# Experiments:
# Plasmepsin II = Plasmepsin II (Plasmodium falciparum (isolate HB3), UniProt P46925); assay: Fluorescence Resonance Energy Transfer (FRET)-Based Assay; settings: pH 5
# Method: (§1) The assay was performed with plasmepsin-II/cathepsin D (1.2 nM) and substrate (malaria FRET-1; 1.0 μM) in 0.1 M sodium acetate buffer pH 5, containing 10% glycerol and 0.01% Tween 20. The hydrazide and hydrazine compounds dissolved in DMSO were added in the reaction mixture before the addition of substrate. The assays were performed with 5% final concentration of DMSO. The enzyme inhibition experiments were performed (in triplicates) in 96-well plate format and readings were obtained on a Perkin Elmer LS55 fluorescence spectrometer, Waltham, Massachusetts, with an excitation and emission wavelengths of 336 and 490 nm respectively.
# Cathepsin D = Cathepsin D (Homo sapiens, UniProt P07339); assay: as above; settings: pH 5
# Chain of Cathepsin D (P07339 65-162 limits assumed): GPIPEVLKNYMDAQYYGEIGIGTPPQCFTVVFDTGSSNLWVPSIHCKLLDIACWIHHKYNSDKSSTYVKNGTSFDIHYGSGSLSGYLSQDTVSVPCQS
# Chain of Cathepsin D (P07339 169-412 limits assumed): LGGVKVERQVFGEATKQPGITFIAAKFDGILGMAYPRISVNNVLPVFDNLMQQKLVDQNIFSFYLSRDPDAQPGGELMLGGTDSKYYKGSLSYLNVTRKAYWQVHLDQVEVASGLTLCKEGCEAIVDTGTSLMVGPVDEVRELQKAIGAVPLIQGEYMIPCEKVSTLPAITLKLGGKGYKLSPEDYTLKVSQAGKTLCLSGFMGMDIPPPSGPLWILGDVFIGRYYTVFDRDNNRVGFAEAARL
# Method: as §1
# Chain of Plasmepsin II (P46925 whole entry): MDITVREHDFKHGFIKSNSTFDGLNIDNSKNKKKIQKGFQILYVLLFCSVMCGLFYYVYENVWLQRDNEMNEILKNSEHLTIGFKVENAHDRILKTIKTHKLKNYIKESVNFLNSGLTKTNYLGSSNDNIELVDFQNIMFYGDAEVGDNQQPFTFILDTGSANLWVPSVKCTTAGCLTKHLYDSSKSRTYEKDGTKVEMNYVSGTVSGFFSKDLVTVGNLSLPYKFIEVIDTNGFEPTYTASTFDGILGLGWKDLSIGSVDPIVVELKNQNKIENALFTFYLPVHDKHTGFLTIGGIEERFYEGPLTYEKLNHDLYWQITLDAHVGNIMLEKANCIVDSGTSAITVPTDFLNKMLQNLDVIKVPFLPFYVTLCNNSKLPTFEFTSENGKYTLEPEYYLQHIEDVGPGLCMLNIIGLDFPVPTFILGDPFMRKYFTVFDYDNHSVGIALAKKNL
smiles,measurement,setting,value
NNC(=O)c1ccccc1[N+](=O)[O-] [2-Nitrobenzohydrazide],pIC50,Plasmepsin II,6.00
same,pIC50,Cathepsin D,5.89
COc1ccccc1C(=O)NN,pIC50,Plasmepsin II,5.78
same,pIC50,Cathepsin D,5.82
"c1cc(NNc2ccncc2)ccn1 [1,2-Dipyridinylhydrazine]",pIC50,Plasmepsin II,5.84
same,pIC50,Cathepsin D,5.60
"c1ccc(NNc2ccccc2)cc1 [1,2-Diphenylhydrazine]",pIC50,Plasmepsin II,5.98
same,pIC50,Cathepsin D,5.62
CCCC(=O)NN [Butanohydrazide],pIC50,Plasmepsin II,5.90
same,pIC50,Cathepsin D,5.85
